Measurements: patent US20120329721A1, “MEANS FOR PREVENTING AND TREATING CELLULAR DEATH AND THEIR BIOLOGICAL APPLICATIONS” (CHIESI FARMACEUTICI S.P.A., priority 2003, published 2012)
Entries after “also recorded” stand apart in the source; their conditions may differ. Where two headings read alike, the source gives them in different places.

What was measured:
primary cortical neurons [1] = type: cell-based
[2] = target: T1, human recombinant caspase-2 (Homo sapiens, UniProt P42575); assay: In vitro VDVAD-AMC cleavage by recombinant caspase-2; type: biochemical
T1 construct: purchased BIOMOL
T1 sequence (P42575 170-325 limits assumed): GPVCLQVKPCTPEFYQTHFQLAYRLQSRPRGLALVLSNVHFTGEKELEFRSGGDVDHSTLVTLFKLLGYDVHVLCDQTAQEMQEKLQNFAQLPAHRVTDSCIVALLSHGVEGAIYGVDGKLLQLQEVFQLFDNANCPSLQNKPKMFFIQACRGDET
T1 sequence (P42575 348-452 limits assumed): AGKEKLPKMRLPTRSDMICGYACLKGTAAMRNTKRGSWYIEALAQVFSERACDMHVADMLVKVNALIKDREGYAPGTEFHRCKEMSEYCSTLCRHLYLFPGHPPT
Protocol: Activity of human recombinant caspase-2 (BIOMOL QuantiZyme™ Assay System) was assessed in 100 μl assay buffer (50 mM HEPES, pH 7.4, 100 mM NaCl, 0.1% CHAPS, 10 mM DTT, 1 mM EDTA, 10% glycerol).

[3] = system: neonatal ischemic brain injury in 7 day-old rats; conditions: cited from earlier work
caspase-2 = assay: In cellula caspase-2 like activity (FAM-VDVAD-FMK FLICA; Western blotting) in SD-neurons; type: cell-based, mouse
caspase-3 = assay: In cellula caspase-3 like activity (FAM-DEVD-FMK FLICA or anti-cleaved caspase-3 antibody) in SD-neurons; type: cell-based, mouse
caspase-8 = assay: In cellula caspase-8 like activity (FAM-LETD-FMK FLICA) in SD-neurons; type: cell-based, mouse
caspase-9 = assay: In cellula caspase-9 like activity (FAM-LEHD-FMK FLICA) in SD-neurons; type: cell-based, mouse
Protocol: Neurons were incubated with 1/150 of the DMSO stock solution of the FLICA for 1 hr at 37° C. 7-AAD and Hoechst were added during the last 15 min. Then neurons were washed three times in washing buffer (CaspaTag™ Kit). […] Cleaved caspase-3 was evidenced in cellula by immunodetection using Phycoerythrin (PE)-conjugated polyclonal antibodies (Beckton Dickinson). Neurons were stained by 7-AAD, trypsinized and fixed in PBS containing 1% PFA and 20 μg/ml Actinomycin D (AD) for 20 min. […] After washings in PBS, PE-related fluorescence was analysed on the cytometer (Fl-2 channel). Z-val-Ala-Asp(OMe)-FMK (Z-VAD-FMK), Quinoline-Val-Asp (OMe)-CH2-O-Ph (Q-VD-OPH), Z-DEVD-FMK ([…], ICN) and Z-LEHD-FMK ([…], all purchased from ICN (Orsay, France), and 4-(2-Aminoethyl)benzenesulfonyl fluoride (AEBSF, Pefabloc SC, Roche, Meylan, France) were added at 100 μM at the initiation of serum deprivation. Sulforhodamine-DEVD-FMK, (CaspaTag™ Red Activity Kit) permitted to detect activated caspase-3 and FITC-Annexin V. Neurons were incubated with 1/900 of the DMSO stock solution of the FLICA, and 1× FITC-annexin V in 200 μl of annexin-buffer for 30 min at 37° C. Then neurons were washed three times in a buffer composed of 50% washing buffer and 50% annexin-buffer. […] For FM, FLICA was excited through the BP515-560 filter and its fluorescence was collected through the LP590 long pass emission filter.
Neurons were loaded with 1 μM JC-1 for 30 min at 37° C. […] JC-1 monomers were detected in the Fl-1 channel by FC. […] Activated caspase-2, -3, -8 and -9 were detected using specific FAM-conjugated peptides (called Fluorochrome Labeled Inhibitor of Caspase, FLICA: CaspaTag™ fluorescein Caspase Activity Kits, Q-Biogen, Illkirch, France; ApoFluor™ Caspase Detection Kits, ICN, Orsay, France): FAM-VDVAD-FMK, FAM-DEVD-FMK, FAM-LETD-FMK and FAM-LEHD-FMK, respectively. Neurons were incubated with FLICAs (1:150, CaspaTag™ or 1:500, ApoFluor™) for 1 hr at 37° C., then washed three times in washing buffer. […] Phosphatidylserine (PS) exposure to the outer leaflet of the plasma membrane was detected through the fixation of FITC conjugated-annexin V (Immunotech).

cytochrome c = assay: Immunodetection of cytochrome c release in SD-neurons; type: cell-based, mouse
Bax = Bax translocation to mitochondria in SD-neurons (Δ21 antibody immunostaining, subcellular fractionation); type: cell-based, mouse
primary cortical neurons [4] = assay: Cortical neuron death induced by other stimuli (ionomycin, staurosporine, β-amyloid 25-35, MPTP, 3-NPA, SNP); type: cell-based, mouse
Jurkat cells = assay: VP16-induced cell death of Jurkat cells, cytoprotection assay; type: cell-based, human
[5] = system: neonatal ischemic brain injury in 7 day-old rats; conditions: rat, in vivo, ip

For `COC(=O)CC(NC(=O)OC(C)(C)C)C(=O)CF` [BOC-D-FMK, BOC-Asp(OMe)-fluoromethylketone], the “survival / protection of SD-neurons against cell death (apoptosis hallmarks overall)” value (primary cortical neurons [1]) was “neither Z-VAD-FMK nor BOC-D-FMK (BOC-D) is able to delay or to abrogate; also recorded: inefficient”, the Survival (primary cortical neurons [1]; SD model, compound added at the start of SD at the concentration of column '[ ], μM' (first concentration/target where two are printed)) was “No” and the “inhibition of VDVAD-AMC cleavage by recombinant caspase-2” value ([2]; inhibitor 2 μM, 50 μM VDVAD-AMC, caspase-2 125 U, 30 min at 37° C.) was “completely inactive”. The animals with aggravation ([3]; Renolleau's model) was 60% and the “reduction in infarct volume (previous results in this model)” value ([3]; previous results obtained in this model) was “did not induce such a significant reduction in infarct volume”.

For `COC(=O)CC(NC(=O)C(NC(=O)c1ccc2ccccc2n1)C(C)C)C(=O)COc1ccccc1` (centres unmarked) [Q-VD-OPH, Quinoline-Val-Asp (OMe)-CH2-O-Ph], the Survival (primary cortical neurons [1]) was “Yes”, the “concentration required for optimal survival / higher protective effect” value (primary cortical neurons [1]) was 100 µM and the “degradation phase of apoptosis: PS exposure, nuclear apoptosis (NA), PMP in SD-neurons” value (primary cortical neurons [1]) was “strongly prevent; also recorded: fully blocked”. For the same molecule, the “inhibition of PMP (7-AAD) induced by serum deprivation” value (primary cortical neurons [1]) was 93.9+/−3.8%, the “survival / protection of SD-neurons against cell death (apoptosis hallmarks overall)” value (primary cortical neurons [1]) was “mostly rescued; also recorded: highly preserves both nuclear morphology and neurites integrity” and the “caspase-2 like activity / activation in SD-neurons” value (caspase-2) was “completely inactivated; also recorded: abolish caspase-2 activation”. For the same molecule, the “caspase-3 like activity / activation in SD-neurons” value (caspase-3) was “strongly prevent; also recorded: completely inactivated; also recorded: prevent downstream cytochrome c release-dependent activation”, the “inhibition of caspase-3 like activity induced by serum deprivation” value (caspase-3; 100 µM) was 95.3 +/- 5.6% and the “caspase-8 like activity in SD-neurons” value (caspase-8) was “completely inactivated”. The “caspase-9 like activity / activation in SD-neurons” value (caspase-9) was “completely inactivated; also recorded: prevent downstream cytochrome c release-dependent activation”, the “cytochrome c release from mitochondria in SD-neurons” value (cytochrome c) was “efficiently blocked” and the “Bax translocation (relocation) to mitochondria in SD-neurons” value (Bax) was “impair Bax translocation to mitochondria; also recorded: prevented”. For the same molecule, the “cell death induced by staurosporine or ionomycin” value (primary cortical neurons [4]) was “is not prevented”, the “protection from NA and PMP induced by β-amyloid (25-35), MPTP, 3-NPA, SNP or ionomycin” value (primary cortical neurons [4]) was “fails to provide protection, except for β-amyloid; also recorded: fail to prevent significantly” and the “inhibition of VDVAD-AMC cleavage by recombinant caspase-2” value [2] was “blocked”. For the same molecule, the “cell death induced by VP16 (survival)” value (Jurkat cells) was “prevents cell death”, the “terminal nuclear alterations and PMP in VP16-treated Jurkat cells” value (Jurkat cells) was “mostly prevent” and the “animals that exhibited no infarct” value [5] was 4. For the same molecule, the “infarct volume (% damage in the lesioned ipsilateral hemisphere)” value [5] was 12.4±2.6%, the “mortality rate during ischemia or before killing” value [5] was under 4% and the “reduction in infarct volume” value [5] was 44%.
